Laboratory results as given in US9822138B2, “Antiviral beta-amino acid ester phosphodiamide compounds” (Merck Sharp & Dohme Corp., priority 2015, dated 2017).
Where two headings read alike, the source gives them in different places.

Tests used:
HIV-1 (H9/IIIB strain) = test: microbe, parasite or virus in culture; format: cell-based
Experimental: Assessing Antiviral Potency in a Multiple Round HIV-1 Infection Assay (Viking Assay)
The antiviral activity of the tenofovir prodrugs of the Examples herein was assessed in an assay that measures the rate of replication of HIV in cell culture, termed the Viking assay (Viral KINetics in Green cells) and performed as follows. HIV-1 replication was monitored using MT4-gag-GFP clone D3 (hereafter designated MT4-GFP), which are MT-4 cells modified to harbor a GFP reporter gene, the expression of which is dependent on the HIV-1 expressed proteins tat and rev. Productive infection of an MT4-GFP cell with HIV-1 results in GFP expression approximately 24 h post-infection. MT4-GFP cells were maintained at 37° C./5% CO2/90% relative humidity in RPMI 1640 supplemented with 10% fetal bovine serum, 100 U/ml penicillin/streptomycin, and 400 μg/ml G418 to maintain the reporter gene. For infections, MT4-GFP cells were placed in the same medium lacking G418 and infected overnight with HIV-1 (H9/IIIB strain) virus at an approximate multiplicity of infection of 0.01 in the same incubation conditions. Cells were then washed and re-suspended in either RPMI 1640 supplemented with 10% or 50% normal human serum (NHS) at 1.6×10^5 cells/mL (10% NHS or 50% NHS, respectively). Compound plates were prepared by dispensing compounds dissolved in DMSO into wells of 384 well poly-D-lysine-coated plates (0.2 μl/well) using an ECHO acoustic dispenser. Each compound was tested in a 10-point serial 3-fold dilution (typical final concentrations: 8.4 μM-0.42 nM). Controls included no inhibitor (DMSO only) and a combination of three antiviral agents (efavirenz, indinavir, an in-house integrase strand transfer inhibitor at final concentrations of 4 μM each). Cells were added ([…]) to compound plates and the infected cells were maintained at 37° C./5% CO2/90% relative humidity.
Infected cells were quantified at two time points, ˜48 h and ˜72 h post-infection, by counting the number of green cells in each well using an Acumen eX3 scanner. […] Inhibition of R0 is calculated for each well, and IC50s determined by non-linear 4-parameter curve fitting.

[1] = Prodrug stability assay in bio-relevant media (FaSSIF with pancreatin; GI tract stability); format: in vitro ADME; conditions: parent prodrug area at 5 h divided by area at 0 h; 37° C.; 0.5 mg/mL pancreatin in FaSSIF
Experimental: Prodrug Stability Assay in Bio-Relevant Media
The following assay was employed to evaluate the stability of the prodrugs in simulated gastrointestinal tract conditions. Preparation of fasted state simulated intestinal fluid (FaSSIF) using Phares SIF Powder was carried out according to protocols from Phare Drug Delivery AG (Baselland, Switzerland). For sample preparation, 10 μL stock solutions (10 mM) of prodrug substance in DMSO was added to 990 μL of 0.5 mg/mL Pancreatin solution (Fisher CAS#8049-47-6) in FaSSIF. Two samples were prepared for each compound at initial. If the sample was clear solution at the beginning, ran one sample directly as initial by HPLC; if the sample was not clear at starting, diluted the sample by 100% ACN. Put the other sample under 37° C. and observed the sample at 5 h time-point. At 5 h time point, if the sample was clear solution then performed HPLC analysis directly; if it was not clear solution, diluted the sample by 100% ACN and assayed by HPLC. All the samples were vortexed for 3 min and observed before injection. For the diluted samples, the area will be multiplied by a factor when data analysis. The analysis was carried out with an Agilent 1100 series HPLC with autosampler. The column was usually a Poroshell 120 EC-C18, 4.6×50 mm, 2.7 μm. The flow rate was 1.8 mL/min, and the injection volume was 5 or 10 μL. UV detection was in the range 210-400 nm. The mobile phase consisted of solvent A (water plus 10 mM tetrabutylammonium bromide) and solvent B (acetonitrile) with a gradient of 90% solvent A at 0 min changing to 95% solvent B over 6 min, maintained for 1.5 min, then reverting to 90% solvent A over 1.6 min. The area of the parent in prodrug at 5 h time point was divided by the area of the parent in prodrug at 0 h time point, to generate the % claimed parent ratio, which are summarized in Table 5 for GI Tract stability.

[2] = Human immunodeficiency virus 1, 10% normal human serum, MT4-GFP cells infected with HIV-1 H9/IIIB, inhibition of reproductive ratio R0, read-out: Viking, IC50 (10% NHS)
[3] = Human immunodeficiency virus 1, 50% normal human serum, MT4-GFP cells infected with HIV-1 H9/IIIB, inhibition of reproductive ratio R0, read-out: Viking, IC50 (50% NHS)
[4] = 10% normal human serum, MT4-GFP cells infected with HIV-1 H9/IIIB, inhibition of reproductive ratio R0, read-out: Viking, IC50 (10% NHS)
[5] = 50% normal human serum, MT4-GFP cells infected with HIV-1 H9/IIIB, inhibition of reproductive ratio R0, read-out: Viking, IC50 (50% NHS)
[6] = Human immunodeficiency virus 1, IIIB, 10% normal human serum, MT4-GFP cells infected with HIV-1 H9/IIIB, inhibition of reproductive ratio R0, read-out: Viking, IC50 (10% NHS)
[7] = Human immunodeficiency virus 1, IIIB, 50% normal human serum, MT4-GFP cells infected with HIV-1 H9/IIIB, inhibition of reproductive ratio R0, read-out: Viking, IC50 (50% NHS)

| Compound | IC50 (HIV-1 (H9/IIIB strain); [4]) | IC50 (HIV-1 (H9/IIIB strain); [5]) | IC50 (HIV-1 (H9/IIIB strain); [7]) | also measured |
| --- | --- | --- | --- | --- |
| CC(C)OC(=O)[C@H](C)NP(=O)(CO[C@H](C)Cn1cnc2c(N)ncnc21)NC[C@H](C)C(=O)OC(C)C (single isomer, unassigned) [Example 6A] | – | – | – | IC50 (HIV-1 (H9/IIIB strain); [2]): 20 nM; IC50 (HIV-1 (H9/IIIB strain); [3]): 59.3 nM; GI Tract stability [1]: 99.5% |
| CC(C)OC(=O)CCNP(=O)(CO[C@H](C)Cn1cnc2c(N)ncnc21)N[C@@H](C)C(=O)OC(C)C (single isomer, unassigned) [Example 7B] | – | – | – | IC50 (HIV-1 (H9/IIIB strain); [2]): 378 nM; IC50 (HIV-1 (H9/IIIB strain); [3]): 393 nM |
| CC(C)OC(=O)C[C@H](C)NP(=O)(CO[C@H](C)Cn1cnc2c(N)ncnc21)N[C@@H](C)C(=O)OC(C)C (single isomer, unassigned) [Example 8B] | 439 nM | 531 nM | – | – |
| CC(C)OC(=O)C[C@@H](C)NP(=O)(CO[C@H](C)Cn1cnc2c(N)ncnc21)N[C@@H](C)C(=O)OC(C)C (single isomer, unassigned) [Example 9B] | 378 nM | 800 nM | – | – |
| CC(C)OC(=O)[C@H](C)CNP(=O)(CO[C@H](C)Cn1cnc2c(N)ncnc21)N[C@@H](C)C(=O)OC(C)C (single isomer, unassigned) [Example 10B] | 435 nM | 908 nM | – | – |
| CC(C)OC(=O)[C@@H](C)CNP(=O)(CO[C@H](C)Cn1cnc2c(N)ncnc21)N[C@@H](C)C(=O)OC1CCCC1 (single isomer, unassigned) [Example 11A] | – | – | 104 nM | IC50 (HIV-1 (H9/IIIB strain); [6]): 21.5 nM |
| CC(C)OC(=O)[C@@H](C)CNP(=O)(CO[C@H](C)Cn1cnc2c(N)ncnc21)N[C@@H](C)C(=O)OC1CCC1 (single isomer, unassigned) [Example 12A] | – | – | 119 nM | IC50 (HIV-1 (H9/IIIB strain); [6]): 41.7 nM |
| CC(C)OC(=O)[C@@H](C)CNP(=O)(CO[C@H](C)Cn1cnc2c(N)ncnc21)N[C@@H](C)C(=O)OC1CCCCC1 (single isomer, unassigned) [Example 13B] | 34.2 nM | 175 nM | – | – |
| CCCCOC(=O)[C@H](C)NP(=O)(CO[C@H](C)Cn1cnc2c(N)ncnc21)NC[C@H](C)C(=O)OC(C)C (single isomer, unassigned) [Example 15A] | – | – | 146 nM | IC50 (HIV-1 (H9/IIIB strain); [6]): 19.6 nM |
| CC(C)OC(=O)C[C@H](C)NP(=O)(CO[C@H](C)Cn1cnc2c(N)ncnc21)N[C@H](C)C(=O)OC1CCC1 (single isomer, unassigned) [Example 19B] | 3790 nM | > 8400 nM | – | – |
| CC(C)OC(=O)[C@@H](C)CNP(=O)(CO[C@H](C)Cn1cnc2c(N)ncnc21)N[C@H](C)C(=O)OC1CCC1 (single isomer, unassigned) [Example 20A] | 859 nM | 4100 nM | – | – |
| CC(C)OC(=O)[C@@H](C)CNP(=O)(CO[C@H](C)Cn1cnc2c(N)ncnc21)N[C@H](C)C(=O)OC1CCCCC1 (single isomer, unassigned) [Example 21A] | 1460 nM | – | – | – |
| CC(C)OC(=O)[C@@H](C)CNP(=O)(CO[C@H](C)Cn1cnc2c(N)ncnc21)N[C@H](C)C(=O)OC1CCCCC1 (single isomer, unassigned) [Example 21B] | 270 nM | 836 nM | – | – |
| CC(C)OC(=O)[C@@H](C)CNP(=O)(CO[C@H](C)Cn1cnc2c(N)ncnc21)N[C@H](C)C(=O)OC1CCCC1 (single isomer, unassigned) [Example 22A] | 400 nM | – | 480 nM | – |
| CC(C)OC(=O)CCNP(=O)(CO[C@H](C)Cn1cnc2c(N)ncnc21)N[C@H](C)C(=O)OC1CCC1 (single isomer, unassigned) [Example 23A] | > 8400 nM | > 8400 nM | – | – |
| CCCCCOC(=O)C(C)(C)NP(=O)(CO[C@H](C)Cn1cnc2c(N)ncnc21)N[C@@H](C)CC(=O)OC(C)C (single isomer, unassigned) [Example 26A] | 23.3 nM | 116 nM | – | – |
| CCCCCCOC(=O)C(C)(C)NP(=O)(CO[C@H](C)Cn1cnc2c(N)ncnc21)N[C@@H](CC(=O)OC(C)C)C(C)C (single isomer, unassigned) [Example 28A] | 19.1 nM | 58.5 nM | – | – |
| CC(C)OC(=O)CCNP(=O)(CO[C@H](C)Cn1cnc2c(N)ncnc21)NCCC(=O)OC(C)C [Example 1, 1-methylethyl 8-{[(1R)-2-(6-amino-9H-purin-9-yl)-1-methylethoxy]methyl}-2-methyl-4-oxo-3-oxa-7,9-diaza-8-phosphadodecan-12-oate 8-oxide] | – | – | – | IC50 (HIV-1 (H9/IIIB strain); Human immunodeficiency virus 1, IIIB, read-out: Viking, IC50 (10% NHS)): > 8400 nM; IC50 (HIV-1 (H9/IIIB strain); Human immunodeficiency virus 1, IIIB, read-out: Viking, IC50 (50% NHS)): > 8400 nM |
| CC(C)OC(=O)C[C@@H](C)NP(=O)(CO[C@H](C)Cn1cnc2c(N)ncnc21)N[C@H](C)CC(=O)OC(C)C [Example 2, 1-methylethyl (6R,10R)-8-{[(1R)-2-(6-amino-9H-purin-9-yl)-1-methylethoxy]methyl}-2,6,10-trimethyl-4-oxo-3-oxa-7,9-diaza-8-phosphadodecan-12-oate 8-oxide] | – | – | > 8400 nM | IC50 (HIV-1 (H9/IIIB strain); [6]): > 8400 nM |
| CC(C)OC(=O)[C@@H](C)CNP(=O)(CO[C@H](C)Cn1cnc2c(N)ncnc21)NC[C@H](C)C(=O)OC(C)C [Example 3, 1-methylethyl (5S,11S)-8-{[(1R)-2-(6-amino-9H-purin-9-yl)-1-methylethoxy]methyl}-2,5,11-trimethyl-4-oxo-3-oxa-7,9-diaza-8-phosphadodecan-12-oate 8-oxide] | – | – | > 8400 nM | IC50 (HIV-1 (H9/IIIB strain); [6]): 7340 nM |
| CC(C)OC(=O)[C@H](C)CNP(=O)(CO[C@H](C)Cn1cnc2c(N)ncnc21)NC[C@@H](C)C(=O)OC(C)C [Example 4, 1-methylethyl (5R,11R)-8-{[(1R)-2-(6-amino-9H-purin-9-yl)-1-methylethoxy]methyl}-2,5,11-trimethyl-4-oxo-3-oxa-7,9-diaza-8-phosphadodecan-12-oate 8-oxide] | – | – | > 8400 nM | IC50 (HIV-1 (H9/IIIB strain); [6]): 6460 nM |
| CC(C)OC(=O)C[C@H](C)NP(=O)(CO[C@H](C)Cn1cnc2c(N)ncnc21)N[C@@H](C)CC(=O)OC(C)C [Example 5, 1-methylethyl (6S,10S)-8-{[(1R)-2-(6-amino-9H-purin-9-yl)-1-methylethoxy]methyl}-2,6,10-trimethyl-4-oxo-3-oxa-7,9-diaza-8-phosphadodecan-12-oate 8-oxide] | – | – | > 8400 nM | IC50 (HIV-1 (H9/IIIB strain); [6]): > 8400 nM |
| CC(C)OC(=O)[C@H](C)NP(=O)(CO[C@H](C)Cn1cnc2c(N)ncnc21)NC[C@H](C)C(=O)OC(C)C (some centres unmarked) [Example 6B] | – | – | – | IC50 (HIV-1 (H9/IIIB strain); [2]): 258 nM; IC50 (HIV-1 (H9/IIIB strain); [3]): 494 nM |
| CC(C)OC(=O)C[C@@H](C)NP(=O)(CO[C@H](C)Cn1cnc2c(N)ncnc21)N[C@H](C)C(=O)OC1CCC1 (some centres unmarked) [Example 18B] | – | – | – | IC50 (HIV-1 (H9/IIIB strain); [2]): 3810 nM; IC50 (HIV-1 (H9/IIIB strain); [3]): 7120 nM |
| CCCCCOC(=O)C(C)(C)N[P@@](=O)(CO[C@H](C)Cn1cnc2c(N)ncnc21)N[C@@H](CC(=O)OC(C)C)C(C)C [Example 24B] | – | – | – | IC50 (HIV-1 (H9/IIIB strain); [2]): 28.9 nM; IC50 (HIV-1 (H9/IIIB strain); [3]): 170 nM |
